The target in assay [1] is T1, NPM1 C-end WT (Homo sapiens, UniProt P06748).
T1 construct: the C-end domain (residues 225- 294); 6xHis (N); made in house; host or cells: E. coli BL21(DE3)
The assay can be described thus: Isothermal titration calorimetry, NPM1 C-end WT. The format is binding. The conditions noted are these: ITC, 25 °C. The text has this: To confirm a direct interaction of UCM-13369 with NPM1 and to address which domain of the protein would be responsible for binding the compound, pure protein samples of the pentameric N-end domain of NPM1, along with the C-terminal DNA-binding domains of WT and mutant NPM1 C+, were used in calorimetry assays. […] This is indicative of a lower diversity in the chemical environment of amide protons consistent with the previously reported protein unfolding.[29] […] On the other hand, the pentameric construct of the NPM1 N-end, which lacks the AML-related region, yielded a much lower binding affinity (KD ca. 100 μM range, Figure 3D).
ITC experiments were performed in a Nano ITC Low Volume (TA Instruments) at 25 °C. […]
The purity of the protein samples was checked by SDS–PAGE analysis (Figure S3) and protein quantification was performed using the Bradford protein assay.5 NPM molar concentration was expressed as the pentameric form for NPM1 WT N-end and as a monomer for NPM1 C-end WT and mutant. […]
After extraction with acetonitrile and acidification, samples were desalted and concentrated with C18 tips. Mass spectra were recorded in a Hybrid Quadrupole-Orbitrap™ Mass Spectrometer (Thermo Scientific, Waltham, Massachusetts, USA)

Assay [2] has as its system NPM1. As to the kind of experiment: qPCR of NPM1 expression in OCI-AML3 cells. The format is cell-based. The conditions noted are these: OCI-AML3, 10 μM. The text has this: We next studied the impact of UCM-13369 in the genes and/or expression levels of NPM1 and NPM1 C+ pathway components (Figure 4A), including the positive regulation of c-Myc[34] and the negative regulation of FBXW7 and the pro-apoptotic CASP8.[35] […] The inhibition of NPM1 was also observed in MOLM13 cells expressing WT NPM1 (Figure S1B). […]
quantitative real-time PCR (qPCR), or were sorted using a FACS BD INFL UX cell sorter (BD Biosciences, Franklin Lakes, NJ, USA). All cells were maintained at 37 °C in a humidified incubator in an atmosphere of 5% CO2, and passaged every 2–3 days.
Additionally, they were cultured using RPMI media (Gibco/Life Technologies; Grand Island, NY, USA) supplemented with 10% fetal bovine serum (FBS) (Hyclone) and […]
Primary cells. […] After 72 h in maintenance cells were ready to start the assays. […]
Colonospheres, mamospheres and colony formation unit assays. […] After 10 days (mamospheres and colonospheres) and 14 days (CFU-E) we quantified t he number of colonies/spheres and number of cell s (CFU-E) by […]
RNA and DNA extraction and quantitative PCR (qPCR). […] Gene expression was studied from the extracted RNA, processed into cDNA to quantify the expression of NPM1 and c-MYC. […]
The relative amount of targets was determined by the comparative Ct method.
Western blot. […] Lysates wer e cl ear ed by centrifugation (14,000g, 4 °C, 30 min), protein concentration determined by Bradford

T1 sequence (P06748 225-294): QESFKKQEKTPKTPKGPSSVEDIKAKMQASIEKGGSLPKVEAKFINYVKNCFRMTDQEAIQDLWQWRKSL

In assay [1], `COc1ccc(C2Cc3[nH]c4ccccc4c3C(CCNCC3CC3)C2N)cc1` (centres unmarked) [4b, 4-{2-[(Cyclopropylmethyl)amino]ethyl}-2-(4-methoxyphenyl)-2,3,4,9-tetrahydro-1H-carbazol-3-amine] registered a Kd of 37 µM. In assay [2], the “NPM1 expression, dot plot (in words)” value is “decreased NPM1 expression”.

The values are drawn from article PMC11134387, “Cancer-Stem-Cell Phenotype-Guided Discovery of a Microbiota-Inspired Synthetic Compound Targeting NPM1 for Leukemia” (JACS Au, 2024).
